Assay results published in patent publication US11254651B2, “Histone methyltransferase inhibitors” (GLOBAL BLOOD THERAPEUTICS, INC., priority 2016, dated 2022).

Tested on: HGS tumor model
Assay: anti-tumor activity in HGS tumor model
Assay type: in vivo
Conditions: animals treated with 20/kg of compound
Description: […]

C=CC(=O)N1CCN(CCCn2c(=O)c(-c3c(Cl)c(OC)cc(OC)c3Cl)cc3cnc(NC)nc32)CC1 [8-(3-(4-acryloylpiperazin-1-yl)propyl)-6-(2,6-dichloro-3,5-dimethoxyphenyl)-2-(methylamino)pyrido[2,3-d]pyrimidin-7(8H)-one]
antitumor activity: significant antitumor activity and induced tumor regression | tumor size (day 42 after inoculation): 55 mm3
